In publication PMC6372667 (Experimental & Molecular Medicine, 2019):
Where two headings read alike, the source gives them in different places.

Tests used:
horse serum BChE = target: T1, horse serum BChE (Equus caballus, UniProt P81908); experiment: Kinetic analysis of BChE inhibition (Dixon and Lineweaver−Burk plots); type: biochemical; conditions: for Inhibition type BChE: Dixon and Lineweaver−Burk plots
T1 construct: horse serum BChE (EC 3.1.1.8); purchased Sigma-Aldrich Co; host or cells: horse serum
Method: (§1) The Ki was determined by interpretation of the Dixon plot, with the value of the x-axis intercept taken as −Ki.
Dixon plots for BChE inhibition by pterosin derivatives. (2S,3R)-Pterosin C (A), (2R,3R)-pterosin C (B), and (2R)-pterosin B (C) were tested in the presence of substrate concentrations of 0.2 mM (●), 0.4 mM (○), and 0.8 mM (▼).
Dixon plots for BChE inhibition by pteroside derivatives. (2R)-pteroside B (A), (2R,3R)-pteroside C (B), and (3S)-pteroside D (C) were tested in the presence of substrate concentrations of 0.2 mM (●), 0.4 mM (○), and 0.8 mM (▼). Lineweaver-Burk plots for BChE inhibition were generated with inhibitor concentrations of 0 µM (Δ), 4 µM (▼), 20 µM (○), and 100 µM (●) for (2R)-pteroside B (D); 0 µM (Δ), 0.8 µM (▼), 4 µM (○), and 20 µM (●) for (2R,3R)-pteroside C (E) and (3S)-pteroside D (F).

[1] = test system: SH-SY5Y, C6, NIH3T3 and B16F10 cell lines; experiment: MTT cytotoxicity assay, all cell lines tested; type: cell-based
Method: (§2) Cytotoxicity was assessed using the MTT assay. Briefly, the cells were seeded into a 96-well plate at a density of 1×10^5 cells per well in 100 µL of corresponding media and incubated at 37 °C in an incubator under 5% CO2 tension for 24 h. The culture media were then replaced with 100 µL of fresh serum-free media in the presence of varied concentrations of pterosin derivatives, and cells were incubated for an additional 24 h. The control was treated with an equal amount of DMSO present in the assay for a 5 mM concentration. Then, 100 µL of MTT solution (0.5 mg/mL in Phosphate Buffered Saline (PBS)) was added to each culture. To measure the proportion of surviving cells, the media were replaced with 100 µL of DMSO 2 h after the administration of MTT solution. The absorbance was measured at 570 nm using a spectrophotometric plate reader (Molecular Devices, Sunnyvale, CA, USA).

[2] = target: T2, BACE1 (human recombinant β-secretase) (Homo sapiens, UniProt P56817); experiment: Kinetic analysis of BACE1 inhibition (Dixon and Lineweaver−Burk plots); type: biochemical; conditions: for Inhibition type BACE1: Dixon and Lineweaver−Burk plots
Method: as §1
Dixon plots for BACE1 inhibition by pterosin derivatives.
Dixon plots for BACE1 inhibition by pteroside derivatives.

[3] = test system: NIH3T3 mouse embryo fibroblasts; experiment: MTT cytotoxicity assay, NIH3T3; type: cell-based; conditions: 24 h
Method: as §2

Electric eel AChE [4] = target: T3, Electric eel AChE (Electrophorus electricus, UniProt O42275); experiment: Kinetic analysis of AChE inhibition (Dixon and Lineweaver−Burk plots); type: biochemical; conditions: for Inhibition type AChE: Dixon and Lineweaver−Burk plots
T3 construct: purchased Sigma-Aldrich Co
Method: as §1
Dixon plots for AChE inhibition by pterosin derivatives. (2S,3R)-Pterosin C (A), (2R,3R)-pterosin C (B), and (2R)-pterosin B (C) were tested in the presence of substrate concentrations of 0.1 mM (●), 0.3 mM (○), and 0.6 mM (▼). Lineweaver-Burk plots for AChE inhibition were generated with inhibitor concentrations of 0 µM (Δ), 4 µM (▼), 20 µM (○), and 100 µM (●) for (2S,3R)-pterosin C (D) and (2R,3R)-pterosin C (E); and 0 µM (Δ), 2 µM (▼), 10 µM (○), and 50 µM (●) for (2R)-pterosin B (F).
Dixon plots for AChE inhibition by pteroside derivatives. (2R)-pteroside B (A), (2R,3R)-pteroside C (B), and (3S)-pteroside D (C) were tested in the presence of substrate concentrations of 0.1 mM (●), 0.3 mM (○), and 0.6 mM (▼). Lineweaver-Burk plots for AChE inhibition were generated with inhibitor concentrations of 0 µM (Δ), 0.8 µM (▼), 4 µM (○), and 20 µM (●) for (2R)-pteroside B (D), (2R,3R)-pteroside C (E), and (3S)-pteroside D (F).

[5] = test system: SH-SY5Y human neuroblastoma; experiment: MTT cytotoxicity assay, SH-SY5Y; type: cell-based; conditions: 24 h
Method: as §2

Electric eel AChE [6] = target: T3, Electric eel AChE; experiment: In vitro cholinesterase enzyme assay (Ellman), AChE; type: biochemical
[7] = target: T2, BACE1 (human recombinant β-secretase); experiment: In vitro BACE1 FRET enzyme assay; type: biochemical; conditions: mean ± S.D. of three experiments
Text: BACE1 (human recombinant β-secretase) ([…]) and the BACE1 FRET (fluorescence resonance energy transfer) assay kit Red were purchased from ThermoFisher Scientific (P2985; Waltham, MA, USA). […] For the cell culture experiment, Dulbecco’s modified Eagle’s medium (DMEM), Opti-MEM, fetal bovine serum (FBS), and penicillin/streptomycin were obtained from Capricorn Scientific (Ebsdorfergrund, Germany). β-secretase inhibitor III (β-SI) was purchased from Calbiochem (Darmstadt, Germany). The protease inhibitor mixture (a mixture of AEBSF, pepstatin A, E-64, bestain, leupeptin, and aprotinin) was purchased from Sigma-Aldrich (St. Louis, MO, USA). Enzyme-linked immunosorbent assay (ELISA) kits for Aβ40 and Aβ42 were obtained from IBL (Kunma, Japan). All chemicals and solvents used were reagent grade, purchased from commercial sources, and used as received.
The BACE1 FRET assay was carried out according to the manufacturer’s instructions with slight modifications as previously described. The assay was performed in a […] black plate using a multi-pipette.

C6 rat glial cells = experiment: MTT cytotoxicity assay, C6; type: cell-based; conditions: 24 h
Method: as §2

T3 sequence (O42275 24-633): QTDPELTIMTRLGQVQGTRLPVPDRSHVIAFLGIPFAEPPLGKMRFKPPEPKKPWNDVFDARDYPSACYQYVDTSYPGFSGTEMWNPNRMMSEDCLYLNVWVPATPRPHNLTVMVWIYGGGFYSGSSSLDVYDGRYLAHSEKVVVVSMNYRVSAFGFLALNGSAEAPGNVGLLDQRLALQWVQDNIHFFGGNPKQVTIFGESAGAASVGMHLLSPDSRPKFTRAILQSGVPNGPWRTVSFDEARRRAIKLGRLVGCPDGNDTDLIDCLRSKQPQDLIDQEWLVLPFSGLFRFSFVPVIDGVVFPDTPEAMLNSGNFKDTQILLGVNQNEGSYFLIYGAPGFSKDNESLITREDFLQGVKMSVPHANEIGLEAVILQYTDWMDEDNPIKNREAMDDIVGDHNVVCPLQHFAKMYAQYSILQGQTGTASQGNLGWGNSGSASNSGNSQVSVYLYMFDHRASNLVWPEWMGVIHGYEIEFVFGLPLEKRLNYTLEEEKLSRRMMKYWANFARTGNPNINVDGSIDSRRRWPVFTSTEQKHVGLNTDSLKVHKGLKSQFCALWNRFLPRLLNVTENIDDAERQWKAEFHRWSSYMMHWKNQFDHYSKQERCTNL
T2 sequence (P56817 46-501): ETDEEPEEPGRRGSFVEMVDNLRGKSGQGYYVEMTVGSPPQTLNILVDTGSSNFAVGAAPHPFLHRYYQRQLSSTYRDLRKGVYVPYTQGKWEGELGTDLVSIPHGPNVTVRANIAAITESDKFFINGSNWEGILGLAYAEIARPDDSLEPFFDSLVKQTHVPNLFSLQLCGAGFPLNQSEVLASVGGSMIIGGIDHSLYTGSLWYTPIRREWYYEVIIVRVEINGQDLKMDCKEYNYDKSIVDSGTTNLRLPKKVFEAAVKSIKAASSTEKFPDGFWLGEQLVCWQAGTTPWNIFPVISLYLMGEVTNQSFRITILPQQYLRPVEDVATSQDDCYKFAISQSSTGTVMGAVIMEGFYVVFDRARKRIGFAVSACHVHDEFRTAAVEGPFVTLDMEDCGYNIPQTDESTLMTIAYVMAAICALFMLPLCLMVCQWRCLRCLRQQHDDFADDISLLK
T1 sequence (P81908 whole entry): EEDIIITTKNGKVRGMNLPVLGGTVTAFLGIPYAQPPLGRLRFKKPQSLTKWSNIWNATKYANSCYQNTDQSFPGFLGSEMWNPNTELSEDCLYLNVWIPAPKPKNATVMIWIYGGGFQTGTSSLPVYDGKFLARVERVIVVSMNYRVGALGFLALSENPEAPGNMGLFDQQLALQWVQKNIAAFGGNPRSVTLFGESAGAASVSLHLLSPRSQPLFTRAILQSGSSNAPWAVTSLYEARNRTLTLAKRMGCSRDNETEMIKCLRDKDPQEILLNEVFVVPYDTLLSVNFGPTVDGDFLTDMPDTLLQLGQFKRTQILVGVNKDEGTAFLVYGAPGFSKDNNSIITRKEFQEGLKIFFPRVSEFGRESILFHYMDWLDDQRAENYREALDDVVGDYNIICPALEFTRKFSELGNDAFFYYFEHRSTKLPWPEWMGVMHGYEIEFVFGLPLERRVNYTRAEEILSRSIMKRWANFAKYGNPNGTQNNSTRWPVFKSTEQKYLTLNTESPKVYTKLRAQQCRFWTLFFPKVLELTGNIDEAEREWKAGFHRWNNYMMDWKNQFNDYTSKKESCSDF

Row | Structure (SMILES) | Inhibition type BChE (horse serum BChE) | Ki (horse serum BChE; determined by Dixon plot, read-out: Ki BChE) [µM] | LD50, cell lines tested [1] | Inhibition type BACE1 [2] | Ki ([2]; determined by Dixon plot, read-out: Ki BACE1) [µM] | LD50 Based on MTT Assay, NIH3T3 [3] | Inhibition type AChE (Electric eel AChE [4]) | Ki (Electric eel AChE [4]; determined by Dixon plot, read-out: Ki AChE) [µM] | LD50 Based on MTT Assay, SY-SY5Y [5] | IC50 (Electric eel AChE [6]; mean ± S.D. of three experiments, read-out: IC50 AChE) [µM] | IC50 [7] [µM] | LD50 Based on MTT Assay, C6 (C6 rat glial cells) | Ki (horse serum BChE) [µM] | Ki [2] [µM] | Ki (Electric eel AChE [4]) [µM] | IC50 (Electric eel AChE [6]) [µM] | AChE-inhibitory activity fold lower than berberine (Electric eel AChE [6]; ratio of IC50)
1 | Cc1cc2c(c(C)c1CCOC1OC(CO)C(O)C(O)C1O)C(=O)C(C)C2O [(2R,3R)-Pteroside C, (2R,3R)-pteroside C] | Mixed-type | 9.62 | above 5 mM | Mixed-type | 12.6 | >5,000 µM | Mixed-type | 8.13 | >5,000 µM | 3.77 ± 0.38 | 9.74 ± 1.9 | >5,000 µM |  |  |  |  | 
2 | Cc1cc2c(c(C)c1CCO)C(=O)[C@H](C)C2 [(2R)-Pterosin B, (2R)-pterosin B] | Noncompetitive |  | above 5 mM | Noncompetitive |  | >5,000 µM | Mixed-type |  | >5,000 µM |  | 29.6 ± 3.5 | >5,000 µM | 53.5 | 38.3 | 12.1 | 16.2 ± 1 | approximately 40 fold
